# Source: patent US20090075941A1, “TREATING NEOPLASMS” (THE UAB RESEARCH FOUNDATION, priority 2006, published 2009)
# Tests used:
# [1] = system: unprenylated Rap1A in AB12 cells; test: Western blot, accumulation of unprenylated Rap1A (Example 1); assay type: cell-based, mouse
# Method: (§1) Western blotting. AB12 and AC29 cells were plated on 6-well plates in normal culture medium until near confluency. The cells were then rinsed with sterile PBS and cultured for further 24 h in serum-free culture medium, in the presence or absence of 2×10^−4-10^−5 M risedronate, zoledronate or PBS control, with or without 25 μM geranylgeraniol, or the same volume of ethanol as a vehicle control. Culture medium was discarded and the cells were harvested in lysis buffer (20 mM Tris pH 7.4, 150 mM NaCl, 1 mM EDTA, 1 mM EGTA, 1% Triton, 2.5 mM sodium pyrophosphate, 1 mM β-glycerolphosphate, 1 mM Na3VO4, 1 μg/ml leupeptin (Cell Signaling Technology, Inc.; Danvers, Mass.)) and clarified by centrifugation. After boiling the supernatants in reducing SDS sample buffer, equal amounts of protein (˜50 μg) were loaded per lane and the samples were electrophoresed on 10% polyacrylamide SDS gel and transferred to a nitrocellulose membrane. Unprenylated Rap1A was detected with the antibody SC-1482 and total Rap1 (both prenylated and unprenylated forms of both Rap1A and Rap1B) was detected with the antibody SC-65 (Santa Cruz Biotechnology, Inc.; Santa Cruz, Calif.), according to the manufacturer's recommendations. The phosphorylation status of p38 was studied with anti-phospho-p38 and anti-total p38 antibodies (Cell Signaling Technology, Inc.), as recommended by the manufacturer. The protein bands were visualized by chemiluminescence using SuperSignal West Pico ECL kit (Pierce; Rockford, Ill.).
# [2] = system: unprenylated Rap1A in AC29 cells; test: as above; assay type: cell-based, mouse
# Method: as §1
# [3] = system: AB12 cells; test: In vitro growth assay, BrdU incorporation; assay type: cell-based, mouse; conditions: with p38 inhibitor SB202190 10^−5 M vs inactive control compound, 5 days
# Method: (§2) In vitro growth assay. […] Briefly, […] were plated onto 96-well plates in 100 μl of normal culture medium. The cells were then treated with the indicated agents for various times. BrdU was added to the wells for the final 24 h and incorporated BrdU was detected with sequential additions of monoclonal mouse anti-BrdU antibody and HRP-conjugated anti-mouse antibody. After addition of the substrate for HRP, intensity of the colored reaction product, which is proportional to the amount of BrdU incorporated into the cells, was read with spectrophotometer at […].
# [4] = system: AC29 cells; test: In vitro growth assay, BrdU incorporation; assay type: cell-based, mouse; conditions: with p38 inhibitor SB202190 10^−5 M vs inactive control compound, 5 days
# Method: as §2
# [5] = system: AB12 cells; test: Intraperitoneal mouse mesothelioma model, survival; assay type: in vivo, BALB/c mice; conditions: AB12 i.p.
# Method: In vivo mesothelioma models. Female BALB/c mice, four to eight weeks of age, were obtained from the National Cancer Institute-Frederick Cancer Research Facility (Frederick, Md.) and were housed in the Pathogen-Free Rodent Shared Facility (Comprehensive Cancer Center, University of Alabama at Birmingham). All animal procedures were performed, in accordance with recommendations for the proper care and use of laboratory animals and were approved by the local IACUC. Subcutaneous (s.c.) and intraperitoneal (i.p.) mouse mesothelioma models were evaluated. In the s.c. model, 3×10^6 AB12 cells were first injected s.c. into cohorts of BALB/c mice. Treatments with i.p. BPs or vehicle were started when tumors became palpable on day 10 and continued every six days for a total of 4 treatments. Tumor size was measured bidimensionally with calipers every two to three days and tumor volume calculated by the formula (length×width^2)÷2. Mice were euthanized before tumors reached the size of 2000 mm^3. In the i.p. model, AC29 or AB12 cells (5×10^5/0.5 ml) were injected i.p, into cohorts of 10-12 BALB/c using a 26-gauge needle. Treatment was initiated 6 days after tumor inoculation and the mice were followed for survival. In the i.p. model risedronate (15 mg/kg), zoledronate (0.5 mg/kg) or PBS were administered i.p. three times a week for two weeks.
# [6] = system: MDA-MB-231 cells; test: Cell viability, MTS-assay; assay type: cell-based, human
# Method: (§3) Cell viability assays. Cells were plated on 96-well plates at the density of 1×10^3 cells in 100 μl per well in normal culture medium, with or without of the indicated concentrations of the various bisphosphonate combinations and or 1 mM CaCl2, 1 mM EGTA or vehicle and cultured for 48 h. Cell viability was assessed with 3-(4,5-dimethylthiazol-2-yl)-5-(3-carboxy tetrazolium, inner salt (MTS)-assays (CellTiter Aqueous One 96 from Promega; Madison, Wis.) according to the manufacturer's instructions. For each treatment, a PBS-control group was run simultaneously on the same plate. The results for each treatment were calculated as % of the corresponding PBS-group.
# [7] = system: AB-12 cells; test: Cell viability, MTS-assay; assay type: cell-based, mouse
# Method: as §3
# [8] = 1 mM CaCl2, N-BP 10^−4 M or p-BP 10^−3 M
# [9] = N-BP 10^−4 M + clodronate 10^−3 M
# [10] = N-BP 10^−4 M + etidronate 10^−3 M
smiles,measurement,setting,value
O=P(O)(O)C(O)(Cc1cccnc1)P(=O)(O)O [risedronate],accumulation of unprenylated Rap1A,"[1]; 24 h, 2×10^−4-2×10^−6 M",dose-dependent accumulation
same,reversal of BP-induced accumulation of unprenylated Rap1A by geranylgeraniol,[1]; with 25 μM geranylgeraniol,almost completely reversed
same,accumulation of unprenylated Rap1A,"[2]; 24 h, 2×10^−4-2×10^−6 M",dose-dependent accumulation
same,reversal of BP-induced accumulation of unprenylated Rap1A by geranylgeraniol,[2]; with 25 μM geranylgeraniol,almost completely reversed
same,BP-induced growth inhibition on inhibition of p38,[3],augmented
same,BP-induced growth inhibition on inhibition of p38,[4],augmented
same,long-term (> 60 days) survivors,"[5]; groups of 12 mice, risedronate 15 mg/kg i.p.",three
same,median survival,"[5]; zoledronate 0.5 mg/kg or risedronate 15 mg/kg i.p. three times a week for two weeks, PBS 26 days",30 days
same,effect of added Ca2+ on the bisphosphonate's growth inhibitory effect,[6]; [8],enhanced
same,effect of excess clodronate on the viability change induced by the nitrogen-containing bisphosphonate,[6]; [9],did not interfere
same,effect of excess etidronate on the viability change induced by the nitrogen-containing bisphosphonate,[6]; [10],increased
same,effect of added Ca2+ on the bisphosphonate's growth inhibitory effect,[7]; [8],enhanced
same,effect of added EGTA on the bisphosphonate's growth inhibitory effect,"[7]; 1 mM EGTA, N-BP 10^−4 M",enhanced
same,effect of excess clodronate on the viability change induced by the nitrogen-containing bisphosphonate,[7]; [9],"decreased slightly, but significantly cell viability"
same,effect of excess etidronate on the viability change induced by the nitrogen-containing bisphosphonate,[7]; [10],decreased cell viability
